Test system: G. duodenalis BRIS/91/HEPU/1279
Assay: Primary Giardia screen at 10 µM (live-cell imaging, automated counting)
Assay type: cell-based, Giardia duodenalis
Conditions: for % Inhibition n=1 48h / % Inhibition n=1 24h: first singlicate assay; for % Inhibition n=2 24h / % Inhibition n=2 48h: re-assessment
In short: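 One concentration, 10 μM, is screened per compound in singlicate under microaerophilic gas (3% O2, 5% CO2, N2). Inhibition comes from automated image-based counts at 24 and 48 h, relative to 0.2% DMSO controls.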

Compound	% Inhibition n=1 48h [%]	also measured
Cc1ccc(NC(=O)c2ccc(-c3noc(C4CCCN(C(=O)c5ccccc5)C4)n3)cc2)cc1 (stereo not drawn) [SN00797407]	5.6	
CCCCNc1ncccc1-c1nc(-c2ccc(C)cc2)no1 [SN00786331]	25.3	
CC(C)S(=O)(=O)N1CCC(N(C)C2CCOCC2)CC1 [SN00801518]	0.0	
Cc1ccccc1C1CCN(C(=O)C2CCCC2)C1 (stereo not drawn) [SN00782733]	7.3	
Cc1ccc(-n2nc3c(c2NC(=O)COc2ccccc2)CS(=O)(=O)C3)c(C)c1 [SN00802785]	16.6	
COCCn1c(C2CCN(S(=O)(=O)c3cccs3)C2)nc2cccnc21 (stereo not drawn) [SN00802004]	5.3	
O=[N+]([O-])c1ccc(S(=O)(=O)N2CCCCCC2c2cccs2)cc1 (stereo not drawn) [SN00793856]	39.9	
CC(=O)N1CCC2(CC1)OC(=O)C(C)=C2C(=O)NC1CC1 [SN00787857]	0.0	
Cc1ccc(C2c3cccn3-c3ccccc3CN2C(=O)c2cccnc2)cc1 (stereo not drawn) [SN00795042]	0.0	
O=C(Nc1ccc2nc(N3CCCN(c4ncccn4)CC3)cc(C(=O)O)c2c1)c1ccccc1F [SN00790270]	0.0	
Cc1ccc(COCc2nn(C)c3c2CN(S(=O)(=O)c2ccc(F)c(C)c2)CC3)cc1 [SN00796451]	2.1	
COc1cccc(CNC(=O)C2CCCN(c3nccc4c(C)nn(C)c34)C2)c1 (stereo not drawn) [SN00797953]	0.0	
CCn1nc(C(=O)NCc2ccccc2F)cc1-c1cc(C)sc1C [SN00802641]	9.7	
O=S(=O)(NCCC1=CCCCC1)c1ccc(-c2cnc(C3CCCC3)o2)s1 [SN00795100]	27.9	
COc1ccc(-n2ccn(CC(=O)Nc3ccc(OC)cc3OC)c2=O)cc1 [SN00789162]	0.0	
COc1cccc(Cn2c(CNC(=O)CCc3c(C)noc3C)nc3cccnc32)c1 [SN00793247]	17.5	
COc1ccccc1CNC(=O)CCN1C(=O)c2ccccc2C1=O [SN00807762]	30.7	
CCC(=O)N1CCc2c(sc3ncnc(N(C)C4CCN(C)CC4)c23)C1 [SN00801485]	0.0	
COc1cccc(-n2ccn3cc(-c4ccc(OC)c(OC)c4)nc3c2=O)c1 [SN00796018]	36.9	

Compound	% Inhibition n=1 48h [%]	also measured
CC(=O)c1c(C)[nH]c(C(=O)N2CCCC2c2nc(-c3cccc(C(F)(F)F)c3)c[nH]2)c1C (stereo not drawn) [SN00772247]	17.0	
Cc1noc(C)c1CCNC(=O)C1CCN(c2nc3cccnc3n(C)c2=O)CC1 [SN00790058]	15.0	
Cc1sc2cc(C(=O)N3CCN(c4ccc(F)cc4)CC3)[nH]c2c1CN1CCOCC1 [SN00798508]	27.9	
Cc1cccc(NC(=O)NC2CCN(c3nc(C)cc(C)n3)CC2)c1 [SN00786006]	33.8	
NC(=O)C1CCN(C(=O)c2snc(C(=O)NCc3ccccc3)c2N)CC1 [SN00797750]	8.9	
Cc1ccc(-c2cc(C(F)F)n3ncc(C(=O)NCc4cnn(C)c4C)c3n2)cc1 [SN00783829]	0.0	
O=C(Cc1csc2nc(-c3ccccc3)cn12)NCCc1cccs1 [SN00796222]	0.0	
Cc1cc(N2C(=O)C(O)=C(C(=O)c3ccc(Cl)cc3)C2c2ccc([N+](=O)[O-])cc2)no1 (stereo not drawn) [SN00780175]	59.1	Average % Inhibition 24h: 6.4%; % Inhibition n=1 24h: 12.8%; % Inhibition n=2 24h: 0.0%; Average % Inhibition 48h: 29.6%; % Inhibition n=2 48h: 0.0%
CC(C)(C)NC(=O)CCN1CCc2[nH]nc(C(F)(F)F)c2C1 [SN00783032]	9.6	
O=C(Nc1cccc(C(F)(F)F)c1)c1cnn2c(C(F)(F)F)cc(-c3ccco3)nc12 [SN00784128]	9.2	
O=C(CN1C(=O)NC2(CCc3ccccc32)C1=O)N1CCCC(c2nnc3ccccn23)C1 (stereo not drawn) [SN00778393]	0.0	
CNC(=O)Cc1noc(-c2cccc(-n3cccn3)n2)n1 [SN00781149]	4.9	
CN(C)CCn1c(=O)c2[nH]cnc2n(C)c1=O [SN00785782]	13.4	
CCN1c2cc(C)ccc2-n2cccc2C12CCN(S(=O)(=O)c1ccc(C)cc1)CC2 [SN00785371]	10.4	
CCOC(=O)c1ccsc1NC(=O)CN1CCNC(=O)CC1c1ccccc1 (stereo not drawn) [SN00772435]	0.0	
COc1ccc(C2NC(C(=O)O)Cc3c2[nH]c2ccccc32)c(OC)c1 (stereo not drawn) [SN00783957]	5.0	
O=C(c1ccc(F)cc1)N1CCCN(Cc2noc(-c3ccccc3)n2)CC1 [SN00794182]	33.4	
CN1C(=O)Cc2cc(-c3csc(N=C(N)N)n3)ccc21 [SN00777034]	0.0	
Cc1sc2ncn(CC3CCCO3)c(=O)c2c1C(=O)Nc1ccc(S(N)(=O)=O)nc1 (stereo not drawn) [SN00793191]	0.0	

Compound	% Inhibition n=1 48h [%]	also measured
CCCCS(=O)(=O)N1CCC2(CC1)CC2c1nc(-c2cccc(Cl)c2)no1 (stereo not drawn) [SN00782685]	0.0	
O=C(Nc1ccc(N2CCN(C3CCCCC3)C2=O)nc1)c1ccc(Cl)s1 [SN00801852]	26.3	
Cc1ccccc1C(=O)Nc1cnc(N2CCNCC2)c(C(=O)N(C)Cc2ccccc2)c1 [SN00795318]	15.2	
C/C=C/c1ccc(OCC(=O)N2CCCN(C(=O)C3CCCC3)CC2)c(OC)c1 [SN00771493]	16.5	
Cc1ccc(NC(=O)CN2CC(c3ccccc3)CC2=O)c(C)c1 (stereo not drawn) [SN00784704]	6.2	
Cc1cccc(NC(=O)Cn2c(=O)n(-c3ccc(F)cc3)c(=O)c3c(C)c(C(=O)N(C)C)sc32)c1 [SN00794395]	21.9	
COc1ccc(S(=O)(=O)N2CC=C(C(=O)Nc3ccc(Cl)cc3)CC2)cc1 [SN00785473]	0.0	
CC1Cc2ccccc2N1C(=O)c1cc(-c2cccnc2)[nH]n1 (stereo not drawn) [SN00792679]	19.0	
Cc1cn2c(S(=O)(=O)N3CCN(c4ccc(F)cc4)CC3)c(C(C)C)nc2s1 [SN00799325]	19.4	
Cc1cc(N2CCN(c3ccccc3F)CC2)n2cnnc2n1 [SN00785845]	30.4	
Cc1nc(CN2CCCNCC2)oc1C [SN00778765]	0.0	
COc1ccc(Cl)cc1NC(=O)Nc1ccc2c(c1)CN(Cc1ccccc1)C2 [SN00796317]	57.6	Average % Inhibition 24h: 8.8%; % Inhibition n=1 24h: 17.7%; % Inhibition n=2 24h: 0.0%; Average % Inhibition 48h: 37.5%; % Inhibition n=2 48h: 17.4%
Cc1ccccc1C(=O)N[C@@H]1CCCC[C@H]1NC(=O)C1CCCN(C(=O)c2ccc(Cl)cc2)C1 (stereo partly drawn) [SN00802559]	3.9	
Cc1sc2cc(C(=O)NC(C)(C)C)[nH]c2c1CN1CCOCC1 [SN00798503]	2.4	
CCS(=O)(=O)c1nc2ccc(NS(=O)(=O)c3ccc4c(c3)OCCO4)cc2s1 [SN00797922]	0.0	
O=C(c1ccccc1)N1CCN(C(=O)c2ccc3noc(-c4ccccc4)c3c2)CC1 [SN00777400]	15.8	
COc1ccc(-c2cnc(C)o2)cc1S(=O)(=O)Nc1ccc(C)cc1 [SN00792030]	22.0	
Cc1cccc(OCC(=O)N2CCN(Cc3nnsc3Cl)CC2)c1C [SN00777844]	35.2	

From publication PMC9775191, “A Subset Screen of the Compounds Australia Scaffold Library Identifies 7-Acylaminodibenzoxazepinones as Potent and Selective Hits for Anti-Giardia Drug Discovery” (Biomedicines, 2022)
